{"source": "patent US20060079566A1", "about": "“PDK-1/Akt signaling inhibitors” (priority 2003, published 2006)", "key": {"[1]": {"system": "sixty human tumor cell lines", "assay": "NCI DTP sixty cell line assay, means over the panel", "type": "cell-based", "description": "(§1) Screening of compounds 70 and 71 against several cancer cell lines The human tumor cell lines of the cancer screening panel are grown in RPMI 1640 medium containing 5% fetal bovine serum and 2 mM L-glutamine. For a typical screening experiment, cells are inoculated into 96 well microtiter plates in 100 μL at plating densities ranging from 5,000 to 40,000 cells/well depending on the doubling time of individual cell lines. After cell inoculation, the microtiter plates are incubated at 37° C., 5% CO2, 95% air and 100% relative humidity for 24 h prior to addition of experimental drugs.\n(§2) After 24 h, two plates of each cell line are fixed in situ with TCA, to represent a measurement of the cell population for each cell line at the time of drug addition (Tz). Experimental drugs are solubilized in dimethyl sulfoxide at 400-fold the desired final maximum test concentration and stored frozen prior to use. At the time of drug addition, an aliquot of frozen concentrate is thawed and diluted to twice the desired final maximum test concentration with complete medium containing 50 μg/ml gentamicin. Additional four, 10-fold or ½ log serial dilutions are made to provide a total of five drug concentrations plus control. Aliquots of 100 μl of these different drug dilutions are added to the appropriate microtiter wells already containing 100 μl of medium, resulting in the required final drug concentrations.\n(§3) Following drug addition, the plates are incubated for an additional 48 h at 37° C., 5% CO2, 95% air, and 100% relative humidity. For adherent cells, the assay is terminated by the addition of cold TCA. Cells are fixed in situ by the gentle addition of 50 μl of cold 50% (w/v) TCA (final concentration, 10% TCA) and incubated for 60 minutes at 4° C. The supernatant is discarded, and the plates are washed five times with tap water and air dried. Sulforhodamine B (SRB) solution (100 μl) at 0.4% (w/v) in 1% acetic acid is added to each well, and plates are incubated for 10 minutes at room temperature. After staining, unbound dye is removed by washing five times with 1% acetic acid and the plates are air dried. Bound stain is subsequently solubilized with 10 mM trizma base, and the absorbance is read on an automated plate reader at a wavelength of 515 nm. For suspension cells, the methodology is the same except that the assay is terminated by fixing settled cells at the bottom of the wells by gently adding 50 μl of 80% TCA (final concentration, 16% TCA). Using the seven absorbance measurements [time zero, (Tz), control growth, (C), and test growth in the presence of drug at the five concentration levels (Ti)], the percentage growth is calculated at each of the drug concentrations levels. Percentage growth inhibition is calculated as: [(Ti−Tz)/(C−Tz)]×100 for concentrations for which Ti>/=Tz [(Ti−Tz)/Tz]×100 for concentrations for which Ti<Tz\n(§4) Three dose response parameters are calculated for each experimental agent. […] The drug concentration resulting in total growth inhibition (TGI) is calculated from Ti=Tz. […] Values are calculated for each of these three parameters if the level of activity is reached; however, if the effect is not reached or is exceeded, the value for that parameter is expressed as greater or less than the maximum or minimum concentration tested."}, "[2]": {"system": "K-562", "assay": "NCI DTP screen (SRB), Leukemia", "type": "cell-based", "conditions": "Homo sapiens", "description": "as §1, §2, §3, §4"}, "[3]": {"system": "MOLT-4", "assay": "NCI DTP screen (SRB), Leukemia", "type": "cell-based", "conditions": "Homo sapiens", "description": "as §1, §2, §3, §4"}, "[4]": {"system": "RPMI-8226", "assay": "NCI DTP screen (SRB), Leukemia", "type": "cell-based", "conditions": "Homo sapiens", "description": "as §1, §2, §3, §4"}, "[5]": {"system": "SR", "assay": "NCI DTP screen (SRB), Leukemia", "type": "cell-based", "description": "as §1, §2, §3, §4"}, "[6]": {"system": "HOP-92", "assay": "NCI DTP screen (SRB), Non-Small Cell Lung Cancer", "type": "cell-based", "conditions": "Homo sapiens, HOP-92, read-out: LC50", "protocol": "After 24 h, two plates of each cell line are fixed in situ with TCA, to represent a measurement of the cell population for each cell line at the time of drug addition (Tz). Experimental drugs are solubilized in dimethyl sulfoxide at 400-fold the desired final maximum test concentration and stored frozen prior to use. […]\nFollowing drug addition, the plates are incubated for an additional 48 h at 37° C., 5% CO2, 95% air, and 100% relative humidity. […] Bound stain is subsequently solubilized with 10 mM trizma base, and the absorbance is read on an automated plate reader at a wavelength of 515 nm. […] Using the seven absorbance measurements [time zero, (Tz), control growth, (C), and test growth in the presence of drug at the five concentration levels (Ti)], the percentage growth is calculated at each of the drug concentrations levels. Percentage growth inhibition is calculated as: [(Ti−Tz)/(C−Tz)]×100 for concentrations for which Ti>/=Tz [(Ti−Tz)/Tz]×100 for concentrations for which Ti<Tz […]"}, "[7]": {"system": "COLO 205", "assay": "NCI DTP screen (SRB), Colon Cancer", "type": "cell-based", "conditions": "Homo sapiens", "description": "as §1, §2, §3, §4"}, "[8]": {"system": "HCT-116", "assay": "NCI DTP screen (SRB), Colon Cancer", "type": "cell-based", "conditions": "Homo sapiens", "description": "as §1, §2, §3, §4"}, "[9]": {"system": "KM12", "assay": "NCI DTP screen (SRB), Colon Cancer", "type": "cell-based", "conditions": "Homo sapiens", "description": "as §1, §2, §3, §4"}, "[10]": {"system": "SW-620", "assay": "NCI DTP screen (SRB), Colon Cancer", "type": "cell-based", "conditions": "Homo sapiens", "description": "as §1, §2, §3, §4"}, "[11]": {"system": "LOX IMVI", "assay": "NCI DTP screen (SRB), Melanoma", "type": "cell-based", "conditions": "Homo sapiens, LOX IMVI", "description": "as §1, §2, §3, §4"}, "[12]": {"system": "M14", "assay": "NCI DTP screen (SRB), Melanoma", "type": "cell-based", "conditions": "Homo sapiens", "description": "as §1, §2, §3, §4"}, "[13]": {"system": "SK-MEL-28", "assay": "NCI DTP screen (SRB), Melanoma", "type": "cell-based", "conditions": "Homo sapiens", "description": "as §1, §2, §3, §4"}, "[14]": {"system": "SK-MEL-2", "assay": "NCI DTP screen (SRB), Melanoma", "type": "cell-based", "description": "as §1, §2, §3, §4"}, "[15]": {"system": "SK-MEL-5", "assay": "NCI DTP screen (SRB), Melanoma", "type": "cell-based", "conditions": "Homo sapiens", "description": "as §1, §2, §3, §4"}, "[16]": {"system": "IGROV1", "assay": "NCI DTP screen (SRB), Ovarian Cancer", "type": "cell-based", "conditions": "Homo sapiens", "description": "as §1, §2, §3, §4"}, "[17]": {"system": "OVCAR-3", "assay": "NCI DTP screen (SRB), Ovarian Cancer", "type": "cell-based", "description": "as §1, §2, §3, §4"}, "[18]": {"system": "OVCAR-4", "assay": "NCI DTP screen (SRB), Ovarian Cancer", "type": "cell-based", "conditions": "Homo sapiens", "description": "as §1, §2, §3, §4"}, "[19]": {"system": "OVCAR-5", "assay": "NCI DTP screen (SRB), Ovarian Cancer", "type": "cell-based", "conditions": "Homo sapiens", "description": "as §1, §2, §3, §4"}, "[20]": {"system": "OVCAR-8", "assay": "NCI DTP screen (SRB), Ovarian Cancer", "type": "cell-based", "conditions": "Homo sapiens", "description": "as §1, §2, §3, §4"}, "[21]": {"system": "SK-OV-3", "assay": "NCI DTP screen (SRB), Ovarian Cancer", "type": "cell-based", "conditions": "Homo sapiens", "description": "as §1, §2, §3, §4"}, "[22]": {"assay": "Preliminary animal studies, daily oral administration", "conditions": "data not shown"}}, "data": [{"smiles": "NCC(=O)Nc1ccc(-n2nc(C(F)(F)F)cc2-c2ccc3c(ccc4ccccc43)c2)cc1", "note": "[Compound 70, 2-Amino-N-{4-[5-(2-phenanthrenyl)-3-(trifluoromethyl)-1H-pyrazol-1-yl]-phenyl}-acetamide]", "values": [{"measurement": "range in which cell growth is completely suppressed in a diverse range of tumor cell lines", "setting": "[1]", "result": "3 to 5", "unit": "µM"}, {"measurement": "CC50", "setting": "[1]; Homo sapiens, 48 h, read-out: mean LC50 among the sixty cell lines", "result": 24000, "unit": "nM"}, {"measurement": "GI50", "setting": "[1]; Homo sapiens, 48 h, two-day treatment, serum-containing medium, read-out: mean GI50 among the sixty cell lines", "result": 1100, "unit": "nM"}, {"measurement": "concentration at which many cell lines respond to the growth inhibitory effect", "setting": "[1]; two-day exposure, 5% FBS-containing medium", "result": "≥ 0.1", "unit": "µM"}, {"measurement": "CC50", "setting": "[2]; K562, read-out: LC50", "result": "> 100000", "unit": "nM"}, {"measurement": "GI50", "setting": "[2]; K562, K-562", "result": 257, "unit": "nM"}, {"measurement": "GI50", "setting": "[3]; MOLT-4", "result": 636, "unit": "nM"}, {"measurement": "CC50", "setting": "[3]; MOLT-4, read-out: LC50", "result": "> 100000", "unit": "nM"}, {"measurement": "GI50", "setting": "[4]", "result": 537, "unit": "nM"}, {"measurement": "GI50", "setting": "[5]; Homo sapiens", "result": 711, "unit": "nM"}, {"measurement": "CC50", "setting": "[5]; Homo sapiens, read-out: LC50", "result": "> 100000", "unit": "nM"}, {"measurement": "Mean Optical Densities", "setting": "[5]; Log10 Concentration −8.0", "result": 0.816}, {"measurement": "CC50", "setting": "[6]", "result": 5870, "unit": "nM"}, {"measurement": "GI50", "setting": "[7]", "result": 1190, "unit": "nM"}, {"measurement": "GI50", "setting": "[8]; HCT-116", "result": 1270, "unit": "nM"}, {"measurement": "CC50", "setting": "[8]; HCT-116, read-out: LC50", "result": "> 100000", "unit": "nM"}, {"measurement": "GI50", "setting": "[9]; KM12", "result": 1070, "unit": "nM"}, {"measurement": "CC50", "setting": "[9]; KM12, read-out: LC50", "result": 6620, "unit": "nM"}, {"measurement": "GI50", "setting": "[10]; SW-620", "result": 1120, "unit": "nM"}, {"measurement": "CC50", "setting": "[10]; SW-620, read-out: LC50", "result": "> 100000", "unit": "nM"}, {"measurement": "GI50", "setting": "[11]", "result": 836, "unit": "nM"}, {"measurement": "GI50", "setting": "[12]; M14", "result": 2100, "unit": "nM"}, {"measurement": "CC50", "setting": "[12]; M14, read-out: LC50", "result": "> 100000", "unit": "nM"}, {"measurement": "GI50", "setting": "[13]; SK-MEL-28", "result": 1220, "unit": "nM"}, {"measurement": "CC50", "setting": "[13]; SK-MEL-28, read-out: LC50", "result": 5690, "unit": "nM"}, {"measurement": "GI50", "setting": "[14]; Homo sapiens, SK-MEL-2", "result": 2330, "unit": "nM"}, {"measurement": "CC50", "setting": "[14]; Homo sapiens, SK-MEL-2, read-out: LC50", "result": "> 100000", "unit": "nM"}, {"measurement": "Percent Growth", "setting": "[14]; SK-MEL-2, Log10 Concentration −5.0", "result": "−67", "unit": "%"}, {"measurement": "GI50", "setting": "[15]", "result": 1360, "unit": "nM"}, {"measurement": "CC50", "setting": "[16]; IGROV-1, read-out: LC50", "result": "> 100000", "unit": "nM"}, {"measurement": "GI50", "setting": "[16]; IGROV-1, IGROV1", "result": 1560, "unit": "nM"}, {"measurement": "GI50", "setting": "[17]; Homo sapiens", "result": 1510, "unit": "nM"}, {"measurement": "Mean Optical Densities", "setting": "[17]; Log10 Concentration −8.0", "result": 1.879}, {"measurement": "GI50", "setting": "[18]; OVCAR-4", "result": 1780, "unit": "nM"}, {"measurement": "CC50", "setting": "[18]; OVCAR-4, read-out: LC50", "result": 6550, "unit": "nM"}, {"measurement": "GI50", "setting": "[19]; OVCAR-5", "result": 1710, "unit": "nM"}, {"measurement": "CC50", "setting": "[19]; OVCAR-5, read-out: LC50", "result": 6450, "unit": "nM"}, {"measurement": "GI50", "setting": "[20]; OVCAR-8", "result": 1020, "unit": "nM"}, {"measurement": "CC50", "setting": "[20]; OVCAR-8, read-out: LC50", "result": "> 100000", "unit": "nM"}, {"measurement": "GI50", "setting": "[21]", "result": 1370, "unit": "nM"}, {"measurement": "toxicity to the animals", "setting": "[22]; daily oral administration for one month", "result": "little toxicity"}, {"measurement": "oral absorption", "setting": "[22]; preliminary animal studies", "result": "can be orally absorbed"}]}]}
